Results: paper PMC10817917, “Alkyl deoxyglycoside-polymyxin combinations against critical priority carbapenem-resistant gram-negative bacteria” (Scientific Reports, 2024)
Read-outs that look alike come from different tables or passages of the source.

Experiments:
K. pneumoniae CQ4921 = experiment: Broth microdilution MIC/MBC, glycosides with or without polymyxins; assay type: cell-based, Klebsiella pneumoniae; details: for MIC: Klebsiella pneumoniae, CQ4921
E. cloacae CQ1941 = experiment: as above; assay type: cell-based; details: for MIC: Enterobacter cloacae, CQ1941
K. pneumoniae CQ1947 = experiment: Broth microdilution MIC, glycosides with or without polymyxins; assay type: cell-based, Klebsiella pneumoniae; details: for MIC: Klebsiella pneumoniae, CQ1947
P. aeruginosa CQ4924 = experiment: as above; assay type: cell-based, Pseudomonas aeruginosa; details: for MIC: Pseudomonas aeruginosa, CQ4924
Caco-2 cells = experiment: Resazurin cell viability assay (cytotoxicity); assay type: cell-based, human; details: Homo sapiens, Caco-2, 72 h, read-out: IC50
Procedure: (§1) Cytotoxicity of each compound alone or in combination with different polymyxin concentrations was evaluated through the resazurin cell viability assay[49] in human embryonic HEK-293T cells, as well as in human colon adenocarcinoma Caco-2 cells, after a 72-h long incubation period.
(§2) HEK-293T and Caco-2 cells were grown in RPMI 1640 medium (VWR) supplemented with 10% FBS (Biowest), 1% PenStrep (Sigma Aldrich), and 1% glutamine (Biowest) in a humidified incubator at 37 °C with a 5% CO2 atmosphere. Twice a week, the medium was aspirated, the cells were washed with DPBS (VWR), trypsinized with trypsin–EDTA solution (Biowest), and resuspended in fresh culture medium. The dose-dependent effects of each glycoside or glycoside-polymyxin combination were evaluated by the resazurin cell viability assay. Polymyxins (colistin sulfate and PMB sulfate for microbiological assays, European Pharmacopoeia Reference Standards, Sigma-Aldrich) were firstly dissolved in sterilized Mili-Q water to a stock concentration of 1 mg/mL, while glycosides were dissolved in DMSO to a stock concentration of 30 mM. 1.5 × 10^4 cells/well in 96.5 µL of medium were seeded onto 96-well plates and incubated at 37 °C for 24 h. For each compound, ten stock dilutions (with concentrations from 750 to 75 µM) were prepared in fresh medium immediately prior to incubation. 16 µL of each dilution were added to each well so that the final glycoside concentrations ranged from 100 to 10 µM in each row in a final assay volume of 120 µL. In addition, the previously prepared polymyxin stock solutions were diluted in fresh medium, affording new stocks of 8, 4, and 2 µg/mL. The same volume (7.5 µL/well) of PMB or colistin was then added to each row to achieve a final polymyxin concentration of 0.5, 0.25, and 0.125 µg/mL, respectively, regardless of the glycoside concentration. In assays without polymyxin, the same volume (7.5 µL/well) of medium was added. In all assays, the maximum DMSO concentration was 0.33%. After a 72-h incubation at 37 °C, 12 µL of a 0.15 mg/mL resazurin (Sigma-Aldrich) in sterilized Mili-Q water were added to each well, and the plates were left incubating for another 4 h at 37 °C. Resorufin was measured at 570/600 nm, and the percentage of resazurin reduction, corresponding to the cell viability percentage, was calculated according to Eq. (1)[60]. IC50 values were obtained by best fitting the dose-dependent inhibition curves using the Prism 9® software. The results were expressed as the mean ± SD of three independent replicates, with only data from analysis with R^2 > 0.90 being considered.1 %Cellviability=Abssample-Absmediumcontrol/Abscellcontrol-Absmediumcontrol×100

HEK-293T cells = experiment: Resazurin cell viability assay (cytotoxicity); assay type: cell-based, human; details: 72 h, read-out: IC50
Procedure: as §1, §2

[1] = alone, read-out: MICA (MIC of each compound individually)
[2] = combination with the lowest FICI
[3] = compound + colistin, lowest FICI

## CCCCCCCCCCCC[C@H]1O[C@H](C)C[C@H](O)[C@H]1O [Compound 5, 1-(4,6-dideoxy-α-D-xylo-hexopyranosyl)dodecane]
K. pneumoniae CQ4921; Cpd conc. 0.4 μg/mL, strain C
  MIC of colistin in combination with the compound: 0.5 mg/L
K. pneumoniae CQ4921; Cpd conc. 0.8 μg/mL, strain C
  MIC of colistin in combination with the compound: 0.5 mg/L
K. pneumoniae CQ4921; Cpd conc. 3.125 μg/mL, strain C
  MIC of colistin in combination with the compound: 0.125 mg/L
K. pneumoniae CQ4921; Cpd conc. 6.25 μg/mL, strain C
  MIC of colistin in combination with the compound: 0.125 mg/L
K. pneumoniae CQ4921; Cpd conc. 12.5 μg/mL, strain C
  MIC of colistin in combination with the compound: 0.125 mg/L
K. pneumoniae CQ4921; Cpd conc. […], strain C
  MIC of colistin in combination with the compound: 0.5 mg/L
K. pneumoniae CQ4921; agent alone, no adjuvant (polymyxin conc. 0), strain C, read-out: MIC
  MIC: > 100 mg/L
K. pneumoniae CQ4921; [1]
  MIC: > 100 mg/L
K. pneumoniae CQ4921; PMB 0.25 μg/mL, strain C
  MIC of compound in combination with PMB: > 100 mg/L
K. pneumoniae CQ4921; PMB 0.5 μg/mL, strain C
  MIC of compound in combination with PMB: 1.6 mg/L
K. pneumoniae CQ4921; colistin 0.06 μg/mL, strain C
  MIC of compound in combination with colistin: > 100 mg/L
K. pneumoniae CQ4921; colistin 0.125 μg/mL, strain C
  MBC of compound in combination with colistin: 6.3 mg/L
  MIC of compound in combination with colistin: 3.1 mg/L
K. pneumoniae CQ4921; colistin 0.5 μg/mL, strain C
  MIC of compound in combination with colistin: ≤ 0.1 mg/L
K. pneumoniae CQ4921; [2]
  MICA(A + B) (MIC of compound in combination with colistin): 3.125 mg/L
  MICB(A + B) (MIC of colistin in combination with compound): 0.125 mg/L
K. pneumoniae CQ4921; compound + colistin
  Interpretation (of FICI): Synergy (Values ≤ 0.5 were considered synergistic)
K. pneumoniae CQ4921; [3]
  FICI: 0.27
E. cloacae CQ1941; Cpd conc. 0.4 μg/mL, strain D
  MIC of colistin in combination with the compound: 0.5 mg/L
E. cloacae CQ1941; Cpd conc. 0.8 μg/mL, strain D
  MIC of colistin in combination with the compound: 0.5 mg/L
E. cloacae CQ1941; Cpd conc. 3.125 μg/mL, strain D
  MIC of colistin in combination with the compound: 0.125 mg/L
E. cloacae CQ1941; Cpd conc. 6.25 μg/mL, strain D
  MIC of colistin in combination with the compound: 0.125 mg/L
E. cloacae CQ1941; Cpd conc. 12.5 μg/mL, strain D
  MIC of colistin in combination with the compound: 0.125 mg/L
E. cloacae CQ1941; Cpd conc. […], strain D
  MIC of colistin in combination with the compound: 0.5 mg/L
E. cloacae CQ1941; agent alone, no adjuvant (polymyxin conc. 0), strain D, read-out: MIC
  MIC: > 100 mg/L
E. cloacae CQ1941; [1]
  MIC: > 100 mg/L
E. cloacae CQ1941; PMB 0.25 μg/mL, strain D
  MIC of compound in combination with PMB: > 100 mg/L
E. cloacae CQ1941; PMB 0.5 μg/mL, strain D
  MIC of compound in combination with PMB: 1.6 mg/L
E. cloacae CQ1941; colistin 0.06 μg/mL, strain D
  MIC of compound in combination with colistin: > 100 mg/L
E. cloacae CQ1941; colistin 0.125 μg/mL, strain D
  MBC of compound in combination with colistin: 6.3 mg/L
  MIC of compound in combination with colistin: 3.1 mg/L
E. cloacae CQ1941; colistin 0.25 μg/mL, strain D
  MIC of compound in combination with colistin: 3.1 mg/L
E. cloacae CQ1941; colistin 0.5 μg/mL, strain D
  MIC of compound in combination with colistin: ≤ 0.1 mg/L
E. cloacae CQ1941; [2]
  MICA(A + B) (MIC of compound in combination with colistin): 3.125 mg/L
  MICB(A + B) (MIC of colistin in combination with compound): 0.125 mg/L
E. cloacae CQ1941; [3]
  FICI: 0.27
K. pneumoniae CQ1947; Cpd conc. 0.4 μg/mL, strain F
  MIC of colistin in combination with the compound: 0.5 mg/L
K. pneumoniae CQ1947; Cpd conc. 0.8 μg/mL, strain F
  MIC of colistin in combination with the compound: 0.5 mg/L
K. pneumoniae CQ1947; Cpd conc. 3.125 μg/mL, strain F
  MIC of colistin in combination with the compound: 0.25 mg/L
K. pneumoniae CQ1947; Cpd conc. 6.25 μg/mL, strain F
  MIC of colistin in combination with the compound: 0.25 mg/L
K. pneumoniae CQ1947; Cpd conc. 12.5 μg/mL, strain F
  MIC of colistin in combination with the compound: 0.25 mg/L
K. pneumoniae CQ1947; Cpd conc. […], strain F
  MIC of colistin in combination with the compound: 0.5 mg/L
K. pneumoniae CQ1947; agent alone, no adjuvant (polymyxin conc. 0), strain F, read-out: MIC
  MIC: > 100 mg/L
K. pneumoniae CQ1947; [1]
  MIC: > 100 mg/L
K. pneumoniae CQ1947; PMB 0.25 μg/mL, strain F
  MIC of compound in combination with PMB: > 100 mg/L
K. pneumoniae CQ1947; PMB 0.5 μg/mL, strain F
  MIC of compound in combination with PMB: 3.1 mg/L
K. pneumoniae CQ1947; colistin 0.06 μg/mL, strain F
  MIC of compound in combination with colistin: > 100 mg/L
K. pneumoniae CQ1947; colistin 0.125 μg/mL, strain F
  MIC of compound in combination with colistin: > 100 mg/L
K. pneumoniae CQ1947; colistin 0.5 μg/mL, strain F
  MIC of compound in combination with colistin: 0.2 mg/L
K. pneumoniae CQ1947; [2]
  MICA(A + B) (MIC of compound in combination with colistin): 3.125 mg/L
  MICB(A + B) (MIC of colistin in combination with compound): 0.25 mg/L
K. pneumoniae CQ1947; compound + colistin
  Interpretation (of FICI): Additive (from 0.5 to 1.0 were additive)
K. pneumoniae CQ1947; [3]
  FICI: 0.52
P. aeruginosa CQ4924; Cpd conc. 0.4 μg/mL, strain H
  MIC of colistin in combination with the compound: > 0.5 mg/L
P. aeruginosa CQ4924; Cpd conc. 0.8 μg/mL, strain H
  MIC of colistin in combination with the compound: > 0.5 mg/L
P. aeruginosa CQ4924; Cpd conc. 3.125 μg/mL, strain H
  MIC of colistin in combination with the compound: 0.5 mg/L
P. aeruginosa CQ4924; Cpd conc. 6.25 μg/mL, strain H
  MIC of colistin in combination with the compound: 0.5 mg/L
P. aeruginosa CQ4924; Cpd conc. 12.5 μg/mL, strain H
  MIC of colistin in combination with the compound: 0.5 mg/L
P. aeruginosa CQ4924; Cpd conc. […], strain H
  MIC of colistin in combination with the compound: > 0.5 mg/L
P. aeruginosa CQ4924; PMB 0.25 μg/mL, strain H
  MIC of compound in combination with PMB: > 100 mg/L
P. aeruginosa CQ4924; PMB 0.5 μg/mL, strain H
  MIC of compound in combination with PMB: 6.3 mg/L
P. aeruginosa CQ4924; agent alone, no adjuvant (polymyxin conc. 0), strain H, read-out: MIC
  MIC: > 100 mg/L
P. aeruginosa CQ4924; [1]
  MIC: > 100 mg/L
P. aeruginosa CQ4924; colistin 0.06 μg/mL, strain H
  MIC of compound in combination with colistin: > 100 mg/L
P. aeruginosa CQ4924; colistin 0.125 μg/mL, strain H
  MIC of compound in combination with colistin: > 100 mg/L
P. aeruginosa CQ4924; colistin 0.25 μg/mL, strain H
  MIC of compound in combination with colistin: > 100 mg/L
P. aeruginosa CQ4924; colistin 0.5 μg/mL, strain H
  MIC of compound in combination with colistin: 3.1 mg/L
P. aeruginosa CQ4924; [2]
  MICA(A + B) (MIC of compound in combination with colistin): 3.125 mg/L
  MICB(A + B) (MIC of colistin in combination with compound): 0.5 mg/L
P. aeruginosa CQ4924; compound + colistin
  Interpretation (of FICI): Additive (from 0.5 to 1.0 were additive)
P. aeruginosa CQ4924; [3]
  FICI: 0.52
Caco-2 cells; Colistin 0.25 μg/mL
  IC50: 64.9 ± 0.98 µM
Caco-2 cells; Colistin 0.5 μg/mL
  IC50: 64.1 ± 1.09 µM
Caco-2 cells; No polymyxin
  IC50: 62.4 ± 1.22 µM
Caco-2 cells; PMB 0.25 μg/mL
  IC50: 61.1 ± 1.06 µM
Caco-2 cells; tested alone (no polymyxin adjuvant)
  IC50: 18.7 mg/L
HEK-293T cells; Homo sapiens, HEK-293T, Colistin 0.125 μg/mL
  IC50: 79.7 ± 1.05 µM
HEK-293T cells; Homo sapiens, HEK-293T, Colistin 0.25 μg/mL
  IC50: 78.6 ± 3.28 µM
HEK-293T cells; Homo sapiens, HEK-293T, Colistin 0.5 μg/mL
  IC50: 80 ± 1.69 µM
HEK-293T cells; Homo sapiens, HEK-293T, No polymyxin
  IC50: 79.74 ± 0.53 µM
HEK-293T cells; Homo sapiens, HEK-293T, PMB 0.125 μg/mL
  IC50: 79.2 ± 2 µM
HEK-293T cells; Homo sapiens, HEK-293T, PMB 0.25 μg/mL
  IC50: 79.4 ± 1.58 µM
HEK-293T cells; Homo sapiens, HEK-293T, PMB 0.5 μg/mL
  IC50: 83.2 ± 0.96 µM
HEK-293T cells; Homo sapiens, HEK-293T, tested alone (no polymyxin adjuvant)
  IC50: 24 mg/L
HEK-293T cells; No polymyxin
  IC50: 79.7 µM
